This assay addresses EGFR T790M/L858R Ba/F3 cell line (Homo sapiens, UniProt P00533, T790M/L858R, cells depend on it). Description: Ba/F3 cell proliferation model. Format: cell-based, murine. The settings on record: combined with cetuximab (% cetuximab, 1.0 μM drug concentration with 1.0 μg/mL cetuximab). Put shortly: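 Murine Ba/F3 cells made IL-3-independent by retroviral EGFR L858R/T790M, selected in puromycin (2 μg/ml) and kept in RPMI 1640 with 10% FBS. Cells were exposed to serially diluted compound for 72 h, with growth read by MTS assay in six wells per point and ≥3 repeats. Sigmoidal dose-response non-linear regression gave the values.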

The structures appear in SMILES notation.

EGFR T790M/L858R Ba/F3 cell line, sequence (P00533 whole entry T790M/L858R): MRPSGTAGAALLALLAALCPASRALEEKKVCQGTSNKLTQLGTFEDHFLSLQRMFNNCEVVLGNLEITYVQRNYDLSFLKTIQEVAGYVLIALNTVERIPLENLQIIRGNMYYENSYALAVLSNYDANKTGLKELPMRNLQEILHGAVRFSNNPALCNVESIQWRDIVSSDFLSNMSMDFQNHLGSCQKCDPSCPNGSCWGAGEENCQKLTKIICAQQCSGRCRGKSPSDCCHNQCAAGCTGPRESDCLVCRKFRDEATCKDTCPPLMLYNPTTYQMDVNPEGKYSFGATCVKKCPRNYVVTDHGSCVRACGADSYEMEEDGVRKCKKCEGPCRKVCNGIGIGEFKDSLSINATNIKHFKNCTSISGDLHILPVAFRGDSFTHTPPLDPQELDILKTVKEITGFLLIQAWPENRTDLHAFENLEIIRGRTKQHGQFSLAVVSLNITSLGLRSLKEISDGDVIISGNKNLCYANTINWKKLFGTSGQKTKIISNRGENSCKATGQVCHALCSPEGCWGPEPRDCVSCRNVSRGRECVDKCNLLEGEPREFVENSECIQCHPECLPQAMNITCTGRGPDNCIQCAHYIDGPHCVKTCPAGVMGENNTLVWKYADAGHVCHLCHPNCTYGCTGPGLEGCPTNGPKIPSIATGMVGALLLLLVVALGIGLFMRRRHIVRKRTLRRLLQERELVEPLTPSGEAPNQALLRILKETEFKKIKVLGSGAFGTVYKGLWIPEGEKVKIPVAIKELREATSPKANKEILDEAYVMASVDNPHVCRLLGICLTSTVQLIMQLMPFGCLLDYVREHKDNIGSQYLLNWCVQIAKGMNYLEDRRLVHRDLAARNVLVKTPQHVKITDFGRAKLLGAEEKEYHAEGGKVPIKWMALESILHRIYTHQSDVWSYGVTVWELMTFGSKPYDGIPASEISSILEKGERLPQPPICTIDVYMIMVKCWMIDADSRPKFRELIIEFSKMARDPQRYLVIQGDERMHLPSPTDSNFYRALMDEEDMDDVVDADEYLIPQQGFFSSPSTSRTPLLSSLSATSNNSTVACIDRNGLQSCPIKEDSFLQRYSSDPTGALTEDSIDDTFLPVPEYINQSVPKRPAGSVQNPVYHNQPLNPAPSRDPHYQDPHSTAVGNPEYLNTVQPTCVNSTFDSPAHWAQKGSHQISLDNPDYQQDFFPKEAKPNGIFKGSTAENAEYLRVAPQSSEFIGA

For the molecule `Nc1cccc(-c2ccc3c(c2)C(=O)N([C@@H](C(=O)Nc2nccs2)c2ccccc2)C3)c1` [Compound I-73, (R)-2-(6-(3-aminophenyl)-1-oxoisoindolin-2-yl)-2-phenyl-N-(thiazol-2-yl)acetamide], the “Activity (% inhibition)” value was “C (a % inhibition of between about 25% to about 50%)”.
In the case of `O=C(Nc1nccs1)[C@@H](c1ccccc1)N1Cc2ccc(-c3ccc(OC(F)(F)F)cc3)cc2C1=O` [Compound I-74, (R)-2-(1-oxo-6-(4-(trifluoromethoxy)phenyl)isoindolin-2-yl)-2-phenyl-N-(thiazol-2-yl)acetamide], the “Activity (% inhibition)” value was “B (a % inhibition of between about 50% to about 75%)”.
As for `Cc1csc(NC(=O)[C@@H](c2ccccc2)N2Cc3ccccc3C2=O)n1` [Compound I-5, (R)-N-(4-methylthiazol-2-yl)-2-(1-oxoisoindolin-2-yl)-2-phenylacetamide], the entry is “A (a % inhibition of about 75%)”.
As for `CNC(=O)c1csc(NC(=O)[C@@H](c2ccccc2)N2Cc3ccccc3C2=O)n1` [Compound I-9, (R)-N-methyl-2-(2-(1-oxoisoindolin-2-yl)-2-phenylacetamido) thiazole-4-carboxamide], the entry is “A (a % inhibition of about 75%)”; as for `O=C(Nc1nccs1)[C@@H](c1ccccc1)N1Cc2cc(Nc3ccc(N4CCOCC4)cc3)ccc2C1=O` [Compound I-94, (R)-2-(5-((4-morpholinophenyl)amino)-1-oxoisoindolin-2-yl)-2-phenyl-(thiazol-2-yl)acetamide], “C (a % inhibition of between about 25% to about 50%)”; as for `NC(=O)c1csc(NC(=O)[C@@H](c2ccccc2)N2Cc3ccccc3C2=O)n1` [Compound I-17, (R)-2-(2-(1-oxoisoindolin-2-yl)-2-phenylacetamido)thiazole-4-carboxamide], “A (a % inhibition of about 75%)”.
As for `O=C(Nc1ccncc1)[C@@H](c1ccccc1)N1Cc2ccccc2C1=O` [Compound I-8, (R)-2-(1-oxoisoindolin-2-yl)-2-phenyl-N-(pyridin-4-yl) acetamide], the entry is “A (a % inhibition of about 75%)”; as for `O=C(Nc1nccs1)[C@@H](c1cccc([N+](=O)[O-])c1)N1Cc2ccccc2C1=O` [Compound I-18, (R)-2-(3-nitrophenyl)-2-(1-oxoisoindolin-2-yl)-N-(thiazol-2-yl)acetamide], “A (a % inhibition of about 75%)”.
As to `O=C(Nc1nccs1)[C@@H](Cc1ccccc1)N1Cc2ccccc2C1=O` [Compound I-39, (R)-2-(1-oxoisoindolin-2-yl)-3-phenyl-N-(thiazol-2-yl)propanamide], the “Activity (% inhibition)” value is on record as “A (a % inhibition of about 75%)”.
Take `O=C(Nc1nc(-c2ccncc2)cs1)[C@@H](c1ccccc1)N1Cc2ccccc2C1=O` [Compound I-37, (R)-2-(1-oxoisoindolin-2-yl)-2-phenyl-N-(4-(pyridin-4-yl)thiazol-2-yl)acetamide]: the “Activity (% inhibition)” value was “A (a % inhibition of about 75%)”.
The same measure for `CCOC(=O)c1csc(NC(=O)[C@H](Cc2ccccc2)N2Cc3ccccc3C2=O)n1` [Compound I-48, ethyl (S)-2-(2-(1-oxoisoindolin-2-yl)-3-phenylpropanamido) thiazole-4-carboxylate]: “A (a % inhibition of about 75%)”; for `Nc1cccc([C@H](C(=O)Nc2nccs2)N2Cc3ccccc3C2=O)c1` [Compound I-38, (R)-2-(3-aminophenyl)-2-(1-oxoisoindolin-2-yl)-N-(thiazol-2-yl)acetamide]: “A (a % inhibition of about 75%)”; for `O=C(Nc1nccs1)[C@H](c1cccc([N+](=O)[O-])c1)N1Cc2ccccc2C1=O` [Compound I-12, (S)-2-(3-nitrophenyl)-2-(1-oxoisoindolin-2-yl)-N-(thiazol-2-yl)acetamide]: “A (a % inhibition of about 75%)”.

(Values after patent US10385019B2, “Inhibitors of EGFR and methods of use thereof” (Dana-Farber Cancer Institute, Inc., priority 2015, dated 2019).)
